What follows are compounds tested against T1, human GPR43 receptor (hGPR43) (Homo sapiens, UniProt O15552) (assay: GTPγS binding assay (SPA method)). Details: membranes expressing hGPR43; assay performed in the presence of SCFA; read-out: EC50 (nM) in GTPγ35S assay.
T1 construct: expressed in transfected cells
T1 sequence (O15552 1-330): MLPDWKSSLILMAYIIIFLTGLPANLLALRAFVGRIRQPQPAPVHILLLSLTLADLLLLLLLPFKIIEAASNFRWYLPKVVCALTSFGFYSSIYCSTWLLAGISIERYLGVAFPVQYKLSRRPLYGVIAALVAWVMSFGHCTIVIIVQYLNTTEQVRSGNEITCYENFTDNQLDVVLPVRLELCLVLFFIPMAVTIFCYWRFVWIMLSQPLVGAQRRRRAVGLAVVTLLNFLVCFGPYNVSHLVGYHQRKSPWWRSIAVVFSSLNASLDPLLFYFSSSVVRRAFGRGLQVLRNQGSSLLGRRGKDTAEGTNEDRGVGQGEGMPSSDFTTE
Assay type: biochemical
Source text: The following assay can be used for determination of GPR43 activation. When a GPCR is in its active state, either as a result of ligand binding or constitutive activation, the receptor couples to a G protein and stimulates the release of GDP and subsequent binding of GTP to the G protein. The alpha subunit of the G protein-receptor complex acts as a GTPase and slowly hydrolyses the GTP to GDP, at which point the receptor normally is deactivated. Activated receptors continue to exchange GDP for GTP. […] The assay uses the ability of GPCR to stimulate [^35S]GTPγS binding to membranes expressing the relevant receptors. The assay can, therefore, be used in the direct identification method to screen candidate compounds to endogenous or not endogenous GPCR.
Membrane extracts were prepared from cells expressing the human GPR43 receptor (hGPR43) as follows: the medium was aspirated and the cells were scraped from the plates in Ca^++ and Mg^++-free Phosphate-buffered saline (PBS). The cells were then centrifuged for 3 min at 1500 g and the pellets were resuspended in buffer A (15 mM Tris-HCl pH 7.5, 2 mM MgCl2, 0.3 mM EDTA, 1 mM EGTA) and homogenized in a glass homogenizer. […] Protein content was assayed by the Folin method.
The assay was performed in the presence of SCFA, and was used to determine the activity of the compounds of the invention.
The [^35S]GTPγS assay was incubated in 20 mM HEPES pH7.4, 100 mM NaCl, 10 μg/ml saponin, 30 mM of MgCl2, 10 μM of GDP, 5 μg membrane-expressing hGPR43, 250 μg of wheatgerm agglutinin beads (Amersham, ref: RPNQ001), a range concentration of compounds (from 30 μM to 1 nM) in a final volume of 100 μl for 30 min at room temperature. The SCFA propionate was used at 1 mM final concentration as positive control. The plates were then centrifuged for 10 minutes at 2000 rpm, incubated for 2 hours at room temperature and counted for 1 min in a scintillation counter (TopCount, PerkinElmer).

Going from `CN(C(=O)[C@@H](CC(=O)O)Cc1ccccc1)c1nc(-c2ccccc2-c2ccc(N3CCCC3)nc2)cs1` [Compound 131, (R)-1-(5-(2-(2-(2-benzyl-3-carboxy-N-methylpropanamido)thiazol-4-yl)phenyl)pyridin-2-yl)pyrrolidin-1-ium 2,2,2-trifluoroacetate] to `CN(C(=O)[C@@H](CC(=O)O)Cc1ccccc1)c1nc(-c2ccccc2-c2ccc(N3CCOCC3)nc2)cs1` [Compound 133, (R)-3-benzyl-4-(methyl(4-(2-(6-morpholinopyridin-3-yl)phenyl)thiazol-2-yl)amino)-4-oxobutanoic acid], the EC50 rises from 96 nM to 241 nM (2.5-fold).

`CN(C)c1ccc(-c2ccccc2-c2csc(N(C(=O)[C@@H](CC(=O)O)CC3CCCC3)C3CC3)n2)cn1` [Compound 218, (R)-3-(cyclopentylmethyl)-4-(cyclopropyl(4-(2-(6-(dimethylamino)pyridin-3-yl)phenyl)thiazol-2-yl)amino)-4-oxobutanoic acid] and `COc1ncc(-c2ccccc2-c2csc(N(C(=O)[C@@H](CC(=O)O)CC3CCCC3)C3CC3)n2)cc1F` [Compound 220, (R)-3-(cyclopentylmethyl)-4-(cyclopropyl(4-(2-(5-fluoro-6-methoxypyridin-3-yl)phenyl)thiazol-2-yl)amino)-4-oxobutanoic acid] are within 1.5-fold of each other in EC50: 32 nM for the first, 27 nM for the second.

Compared with `CN(C(=O)[C@@H](CC(=O)O)Cc1ccccc1)c1nc(-c2ccccc2-c2ccc(Cl)nc2)cs1` [Compound 108, (R)-3-benzyl-4-((4-(2-(6-chloropyridin-3-yl)phenyl)thiazol-2-yl)(methyl)amino)-4-oxobutanoic acid], `COc1ccc(-c2ccccc2-c2csc(N(C)C(=O)[C@@H](CC(=O)O)Cc3ccccc3)n2)cn1` [Compound 116, (R)-3-benzyl-4-((4-(2-(6-methoxypyridin-3-yl)phenyl)thiazol-2-yl)(methyl)amino)-4-oxobutanoic acid] is 1.7-fold lower in EC50: 305 nM for the first, 175 nM for the second. The second is the more potent here.

`CCCC[C@H](CC(=O)O)C(=O)Nc1nc(-c2ccccc2Cl)cs1` [Compound 16, (R)-3-(4-(2-chlorophenyl)thiazol-2-ylcarbamoyl)heptanoic acid] and `CC(C)C[C@H](CC(=O)O)C(=O)Nc1nc(-c2ccccc2Cl)cs1` [Compound 19, (R)-3-(4-(2-chlorophenyl)thiazol-2-ylcarbamoyl)-5-methylhexanoic acid] are within 1.5-fold of each other in EC50: 389 nM for the first, 322 nM for the second.

First: CN1CCOc2cc(-c3ccccc3-c3csc(N(C(=O)[C@@H](CC(=O)O)CC4CCCC4)C4CC4)n3)cnc21 [Compound 194, (R)-3-(cyclopentylmethyl)-4-(cyclopropyl(4-(2-(4-methyl-3,4-dihydro-2H-pyrido[3,2-b][1,4]oxazin-7-yl)phenyl)thiazol-2-yl)amino)-4-oxobutanoic acid]
Second: CN1CCOc2cc(-c3ccccc3-c3csc(N(C)C(=O)[C@@H](CC(=O)O)Cc4ccccc4)n3)cnc21 [Compound 182, (R)-3-benzyl-4-(methyl(4-(2-(4-methyl-3,4-dihydro-2H-pyrido[3,2-b][1,4]oxazin-7-yl)phenyl)thiazol-2-yl)amino)-4-oxobutanoic acid]
The EC50 of the first is 3.1-fold lower: 30 nM for the first, 92 nM for the second.

Compared with `CN(C(=O)[C@@H](CC(=O)O)Cc1ccccc1)c1nc(-c2ccccc2-c2ccc(N3CCCC3=O)nc2)cs1` [Compound 150, (R)-3-benzyl-4-(methyl(4-(2-(6-(2-oxopyrrolidin-1-yl)pyridin-3-yl)phenyl)thiazol-2-yl)amino)-4-oxobutanoic acid], `CN(C(=O)[C@@H](CC(=O)O)Cc1ccccc1)c1nc(-c2ccccc2-c2cnc3c(ccn3C)c2)cs1` [Compound 217, (R)-3-benzyl-4-(methyl(4-(2-(1-methyl-1H-pyrrolo[2,3-b]pyridin-5-yl)phenyl)thiazol-2-yl)amino)-4-oxobutanoic acid] is 2.8-fold lower in EC50: 353 nM for the first, 126 nM for the second. The second is the more potent here.

`Cc1cc(CC(CC(=O)O)C(=O)N(C)c2nc(-c3ccccc3Cl)cs2)no1` (centres unmarked) [Compound 210, 4-((4-(2-chlorophenyl)thiazol-2-yl)(methyl)amino)-3-((5-methylisoxazol-3-yl)methyl)-4-oxobutanoic acid] and `Cc1nc(CC(CC(=O)O)C(=O)N(C)c2nc(-c3ccccc3Cl)cs2)cs1` (centres unmarked) [Compound 209, 4-((4-(2-chlorophenyl)thiazol-2-yl)(methyl)amino)-3-((2-methylthiazol-4-yl)methyl)-4-oxobutanoic acid] are within 1.5-fold of each other in EC50: 2680 nM for the first, 2470 nM for the second.

Going from `O=C(O)C[C@H](C(=O)Nc1nc(-c2ccccc2Cl)cs1)c1ccccc1` [Compound 9, (S)-4-(4-(2-chlorophenyl)thiazol-2-ylamino)-4-oxo-3-phenylbutanoic acid] to `O=C(O)C[C@@H](Cc1ccccc1)C(=O)Nc1nc(-c2cc(Cl)ccc2Cl)cs1` [Compound 123, (R)-3-benzyl-4-((4-(2,5-dichlorophenyl)thiazol-2-yl)amino)-4-oxobutanoic acid], the EC50 rises from 60 nM to 134 nM (2.2-fold).

Going from `COc1ccc(-c2ccccc2-c2csc(N(C)C(=O)[C@@H](CC(=O)O)Cc3ccccc3)n2)cc1` [Compound 129, (R)-3-benzyl-4-((4-(4′-methoxy-[1,1′-biphenyl]-2-yl)thiazol-2-yl)(methyl)amino)-4-oxobutanoic acid] to `CN(C(=O)[C@@H](CC(=O)O)Cc1ccccc1)c1nc(-c2ccccc2-c2ccsc2)cs1` [Compound 107, (R)-3-benzyl-4-(methyl(4-(2-(thiophen-3-yl)phenyl)thiazol-2-yl)amino)-4-oxobutanoic acid], the EC50 falls from 858 nM to 361 nM (2.4-fold). The second is the more potent here.

Compared with `COc1ncc(-c2ccc(Cl)cc2-c2csc(N(C)C(=O)[C@@H](CC(=O)O)Cc3ccccc3)n2)cc1Cl` [Compound 222, (R)-3-benzyl-4-((4-(5-chloro-2-(5-chloro-6-methoxypyridin-3-yl)phenyl)thiazol-2-yl)(methyl)amino)-4-oxobutanoic acid], `CN(C(=O)[C@@H](CC(=O)O)Cc1ccccc1)c1nc(-c2cccc(OC(F)F)c2)cs1` [Compound 164, (R)-3-benzyl-4-((4-(3-(difluoromethoxy)phenyl)thiazol-2-yl)(methyl)amino)-4-oxobutanoic acid] is 1.6-fold higher in EC50: 102 nM for the first, 161 nM for the second.

Going from `CN(C(=O)[C@@H](CC(=O)O)CC1CCOCC1)c1nc(-c2cc(Cl)ccc2Cl)cs1` [Compound 168, (R)-4-((4-(2,5-dichlorophenyl)thiazol-2-yl)(methyl)amino)-4-oxo-3-((tetrahydro-2H-pyran-4-yl)methyl)butanoic acid] to `O=C(O)C[C@@H](CC1CCCC1)C(=O)N(CCO)c1nc(-c2cc(Cl)ccc2Cl)cs1` [Compound 172, (R)-3-(cyclopentylmethyl)-4-((4-(2,5-dichlorophenyl)thiazol-2-yl)(2-hydroxyethyl)amino)-4-oxobutanoic acid], the EC50 rises from 43 nM to 355 nM (8.3-fold). The first is the more potent here.

Going from `CN(C(=O)C(CC(=O)O)Cc1ccco1)c1nc(-c2ccccc2Cl)cs1` (centres unmarked) [Compound 143] to `CN(C(=O)[C@@H](CC(=O)O)Cc1ccccc1)c1nc(-c2ccccc2C#N)cs1` [Compound 91, (R)-3-benzyl-4-((4-(2-cyanophenyl)thiazol-2-yl)(methyl)amino)-4-oxobutanoic acid], the EC50 rises from 77 nM to 354 nM (4.6-fold).

`O=C(O)C[C@@H](Cc1ccccc1)C(=O)Nc1nc(-c2cccc(Cl)c2)cs1` [Compound 12, (R)-3-benzyl-4-(4-(3-chlorophenyl)thiazol-2-ylamino)-4-oxobutanoic acid] and `O=C(O)C[C@@H](Cc1ccccc1)C(=O)Nc1nc(-c2cc(Cl)sc2Cl)cs1` [Compound 112, (R)-3-benzyl-4-(4-(2,5-dichlorothiophen-3-yl)thiazol-2-ylamino)-4-oxobutanoic acid] are within 1.5-fold of each other in EC50: 424 nM for the first, 538 nM for the second.

First: COc1ccc(-c2ccccc2-c2csc(N(C)C(=O)[C@@H](CC(=O)O)CC3CCOCC3)n2)cn1 [Compound 160, (R)-4-((4-(2-(6-methoxypyridin-3-yl)phenyl)thiazol-2-yl)(methyl)amino)-4-oxo-3-((tetrahydro-2H-pyran-4-yl)methyl)butanoic acid]
Second: O=C(O)C[C@@H](Cc1ccccc1)C(=O)Nc1ccc(-c2ccccc2Cl)c[n+]1[O-] [Compound 196, (R)-2-(2-benzyl-3-carboxypropanamido)-5-(2-chlorophenyl)pyridine 1-oxide]
The EC50 of the first is 7.5-fold lower: 244 nM for the first, 1830 nM for the second.

For `O=C(O)C[C@@H](Cc1ccccc1)C(=O)Nc1cc(-c2cccc(C(F)(F)F)c2)n[nH]1` [Compound 203, (R)-3-benzyl-4-oxo-4-((3-(3-(trifluoromethyl)phenyl)-1H-pyrazol-5-yl)amino)butanoic acid], the EC50 was 1780 nM.

From patent publication US20110230477A1, “COMPOUNDS, PHARMACEUTICAL COMPOSITION AND METHODS FOR USE IN TREATING METABOLIC DISORDERS” (Euroscreen S.A., priority 2008, published 2011)
